Assay: Stability test of solid forms spread flat in the air (lighting, heating, high humidity), purity detected by HPLC
Type: physicochemical
Details: for purity as detected by HPLC, 40° C.: heating 40° C.; for purity as detected by HPLC, 60° C.: heating 60° C.; for purity as detected by HPLC, RH 75%: high humidity RH 75%; for purity as detected by HPLC, RH 90%: high humidity RH 90%; for purity as detected by HPLC, Lighting: lighting 4500 Lux
Experimental: The amorphous sample prepared in Example 1 and crystal form I prepared in Example 3 were spread flat in the air to test their stability under the conditions of lighting (4500 Lux), heating (40° C., 60° C.), and high humidity (RH 75%, RH 90%).

COc1nsc(NC(=O)N2C[C@H]3C[C@H](N(C)c4ncnc5[nH]ccc45)C[C@H]3C2)n1.O=S(=O)(O)O [Amorphous Form, (3aR,5s,6aS)—N-(3-methoxyl-1,2,4-thiadiazole-5-yl)-5-(methyl(7H-pyrrolo[2,3-d]pyrimidine-4-yl)amino)hexahydrocyclopenta[c]pyrrole-2(1H)-formamide bisulfate]
purity as detected by HPLC, 40° C. (day 0): 98.33% | purity as detected by HPLC, 40° C. (day 5): 97.65% | purity as detected by HPLC, 40° C. (day 10): 96.61% | purity as detected by HPLC, 60° C. (day 0): 98.33% | purity as detected by HPLC, 60° C. (day 5): 94.53% | purity as detected by HPLC, 60° C. (day 10): 92.12% | effect of high humidity on stability: does not have much effect | purity as detected by HPLC, RH 75% (day 0): 98.33% | purity as detected by HPLC, RH 75% (day 5): 98.32% | purity as detected by HPLC, RH 75% (day 10): 98.16% | purity as detected by HPLC, RH 90% (day 0): 98.33% | purity as detected by HPLC, RH 90% (day 5): 99.14% | purity as detected by HPLC, RH 90% (day 10): 99.12% | purity as detected by HPLC, Lighting (day 0): 98.33% | purity as detected by HPLC, Lighting (day 5): 98.04% | purity as detected by HPLC, Lighting (day 10): 97.51%

COc1nsc(NC(=O)N2C[C@H]3C[C@H](N(C)c4ncnc5[nH]ccc45)C[C@H]3C2)n1.O=S(=O)(O)O [Crystal form I, (3aR,5s,6aS)—N-(3-methoxyl-1,2,4-thiadiazole-5-yl)-5-(methyl(7H-pyrrolo[2,3-d]pyrimidine-4-yl)amino)hexahydrocyclopenta[c]pyrrole-2(1H)-formamide bisulfate]
purity as detected by HPLC, 40° C. (day 0): 99.45% | purity as detected by HPLC, 40° C. (day 5): 99.42% | purity as detected by HPLC, 40° C. (day 10): 99.42% | purity as detected by HPLC, 60° C. (day 0): 99.45% | purity as detected by HPLC, 60° C. (day 5): 99.36% | purity as detected by HPLC, 60° C. (day 10): 99.35% | effect of high humidity on stability: does not have much effect | purity as detected by HPLC, RH 75% (day 0): 99.45% | purity as detected by HPLC, RH 75% (day 5): 99.42% | purity as detected by HPLC, RH 75% (day 10): 99.40% | purity as detected by HPLC, RH 90% (day 0): 99.45% | purity as detected by HPLC, RH 90% (day 5): 99.42% | purity as detected by HPLC, RH 90% (day 10): 99.39% | purity as detected by HPLC, Lighting (day 0): 99.45% | purity as detected by HPLC, Lighting (day 5): 99.40% | purity as detected by HPLC, Lighting (day 10): 99.39% | stability under the conditions of lighting and high temperature (lighting and high temperature, compared with the amorphous sample): significantly better than that of the amorphous sample

Source: patent US10150770B2, “Crystal form of bisulfate of JAK inhibitor and preparation method therefor” (Jiangsu Hengrui Medicine Co., Ltd., priority 2014, dated 2018)
